Measured values from patent US20210255193A1, “LYSINE REACTIVE PROBES AND USES THEREOF” (The Scripps Research Institute, priority 2017, published 2021).

How the values were obtained:
Experiment in all cases: competitive isoTOP-ABPP
Format in all cases: binding
[1] = target: T1, ERO1L ERO1-like protein alpha (Homo sapiens, UniProt Q96HE7); conditions: for R value (DMSO/fragment) for probe 1 labeling: Q96HE7_K413
T1 construct: isoTOP-ABPP experiments performed in cell lysates (in vitro); endogenous in cells; host or cells: soluble proteome of human cancer cell lines (MDA-MB-231; Ramos and Jurkat also prepared)
T1 sequence (Q96HE7 24-468): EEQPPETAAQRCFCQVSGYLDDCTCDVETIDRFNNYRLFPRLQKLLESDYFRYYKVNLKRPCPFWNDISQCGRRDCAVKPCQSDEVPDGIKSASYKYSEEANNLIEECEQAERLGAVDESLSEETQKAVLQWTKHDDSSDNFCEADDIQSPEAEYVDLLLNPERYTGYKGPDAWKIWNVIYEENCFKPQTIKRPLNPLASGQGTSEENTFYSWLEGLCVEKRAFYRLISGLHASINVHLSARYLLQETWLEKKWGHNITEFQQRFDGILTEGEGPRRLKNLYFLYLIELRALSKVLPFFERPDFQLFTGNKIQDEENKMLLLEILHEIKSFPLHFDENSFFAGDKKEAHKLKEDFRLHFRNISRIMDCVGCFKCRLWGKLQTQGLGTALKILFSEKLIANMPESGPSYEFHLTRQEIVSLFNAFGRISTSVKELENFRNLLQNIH
Outline: (§1)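 Lysine engagement is reported as R, the MS1 peak-area ratio of heavy-tagged DMSO to light-tagged compound samples. Final fragment concentrations were 50 μM for activated esters and 100 μM for guanidinylating agents; STP-alkyne probe 0.1 mM, 1 h.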

[2] = target: T2, RPS10 40S ribosomal protein S10 (Homo sapiens, UniProt P46783); conditions: for R value (DMSO/fragment) for probe 1 labeling: P46783_K139
T2 construct: isoTOP-ABPP experiments performed in cell lysates (in vitro); endogenous in cells; host or cells: soluble proteome of human cancer cell lines (MDA-MB-231; Ramos and Jurkat also prepared)
Outline: as §1

[3] = target: T3, NUDT22 Nucleoside diphosphate-linked moiety X motif 22 (Homo sapiens, UniProt Q9BRQ3); conditions: for R value (DMSO/fragment) for probe 1 labeling: Q9BRQ3_K60
T3 construct: isoTOP-ABPP experiments performed in cell lysates (in vitro); endogenous in cells; host or cells: soluble proteome of human cancer cell lines (MDA-MB-231; Ramos and Jurkat also prepared)
T3 sequence (Q9BRQ3 1-303): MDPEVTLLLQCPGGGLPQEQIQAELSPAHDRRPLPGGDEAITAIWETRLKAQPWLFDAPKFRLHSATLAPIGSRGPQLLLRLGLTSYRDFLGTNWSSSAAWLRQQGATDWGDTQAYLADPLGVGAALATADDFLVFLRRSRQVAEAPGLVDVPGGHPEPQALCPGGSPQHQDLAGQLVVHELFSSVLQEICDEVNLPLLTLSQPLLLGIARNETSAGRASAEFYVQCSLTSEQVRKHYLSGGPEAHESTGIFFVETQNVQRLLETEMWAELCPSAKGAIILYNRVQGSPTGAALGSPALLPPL
Outline: as §1

[4] = target: T4, IFIT3 Interferon-induced protein with tetratricopeptide (Homo sapiens, UniProt O14879); conditions: for R value (DMSO/fragment) for probe 1 labeling: O14879_K148
T4 construct: isoTOP-ABPP experiments performed in cell lysates (in vitro); endogenous in cells; host or cells: MDA-MB-231 soluble lysate
T4 sequence (O14879 1-490): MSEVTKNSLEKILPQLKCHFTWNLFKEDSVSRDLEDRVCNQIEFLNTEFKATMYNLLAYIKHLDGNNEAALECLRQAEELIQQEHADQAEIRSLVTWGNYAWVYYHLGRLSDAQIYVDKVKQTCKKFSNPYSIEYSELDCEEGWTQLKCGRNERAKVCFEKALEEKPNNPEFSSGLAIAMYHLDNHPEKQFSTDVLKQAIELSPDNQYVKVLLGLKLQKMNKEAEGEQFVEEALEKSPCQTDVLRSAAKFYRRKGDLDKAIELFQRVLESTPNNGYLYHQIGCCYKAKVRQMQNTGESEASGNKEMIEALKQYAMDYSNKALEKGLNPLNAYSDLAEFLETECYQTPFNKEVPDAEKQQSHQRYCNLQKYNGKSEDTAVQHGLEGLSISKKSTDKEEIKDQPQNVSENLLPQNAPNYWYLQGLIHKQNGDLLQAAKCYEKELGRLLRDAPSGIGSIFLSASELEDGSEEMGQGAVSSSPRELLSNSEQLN
Outline: as §1

R value (DMSO/fragment) for probe 1 labeling ([1]; 50 uM, 231 sol, in vitro)	R value (DMSO/fragment) for probe 1 labeling ([2]; 50 uM, 231 sol, in vitro)	R value (DMSO/fragment) for probe 1 labeling ([3]; 50 uM, 231 sol, in vitro)	R value (DMSO/fragment) for probe 1 labeling ([4]; 50 uM, 231 sol, in vitro)	Compound	also measured
1.4	0.5	0.8	1.4	O=C(Oc1c(F)c(F)c(F)c(F)c1F)c1cc(C(F)(F)F)cc(C(F)(F)F)c1 [fragment 21, Pentafluorophenyl 3,5-bis(trifluoromethyl)benzoate]	
				O=C(CCc1cn(-c2ccccc2)nc1-c1ccccc1)Oc1ccc([N+](=O)[O-])cc1[N+](=O)[O-] [fragment 29, 2,4-Dinitrophenyl 3-(1,3-diphenyl-1H-pyrazol-4-yl)propanoate]	isoTOP-ABPP reactivity ratio at lysine Q96HE7_K413 ([1]; 50 uM, 231 sol, in vitro): 20.0; isoTOP-ABPP reactivity ratio at lysine P46783_K139 ([2]; 50 uM, 231 sol, in vitro): 20.0; isoTOP-ABPP reactivity ratio at lysine Q9BRQ3_K60 ([3]; 50 uM, 231 sol, in vitro): 0.8; isoTOP-ABPP reactivity ratio at lysine O14879_K148 ([4]; 50 uM, 231 sol, in vitro): 4.1
0.9	0.6	0.8	0.7	O=C(Oc1c(F)c(F)c(F)c(F)c1F)C(c1ccccc1)c1ccccc1 [fragment 20, Pentafluorophenyl 2,2-diphenylacetate]	
				CC(C)(C)OC(=O)N=C(NC(=O)OC(C)(C)C)n1cccn1 [fragment 50, reference compound]	isoTOP-ABPP ratio, lysine Q96HE7_K413 ([1]; 100 uM_231_sol_in vitro, possible other lysine Q86YB8_K412): 1.4; isoTOP-ABPP ratio, lysine P46783_K139 ([2]; 100 uM_231_sol_in vitro): 1.1; isoTOP-ABPP ratio, lysine Q9BRQ3_K60 ([3]; 100 uM_231_sol_in vitro): 1.0; isoTOP-ABPP ratio, lysine O14879_K148 ([4]; 100 uM_231_sol_in vitro): 1.4
